Results from ChEMBL document CHEMBL1141040, “Isolation, structure elucidation, preparation, and biological properties of neolambertellin” (Bioorg Med Chem Lett, 2005).
Converted amounts (≈) assume the structure as drawn.

Tested on: Bipolaris oryzae
Assay: Inhibitory concentration against hyphal germination of Cochlibolus miyabeanus
Assay type: functional, organism-based

For `Cc1cc2cc(O)c3c(O)cccc3c2oc1=O`, the IC50 was 100 µg/mL (≈ 413 µM).
